Source: patent US6630312B2, “Method for identifying compounds for treatment of insulin resistance” (Joslin Diabetes Center, Inc., priority 1999, dated 2003)

Columns and labels:
IRS-2 = test: Tyrosine phosphorylation of IRS-2 in Fao hepatoma cells, TNF-α induced 'insulin resistance'; assay type: cell-based; details: for Reversal of TNF-α induced 'insulin resistance': doses known to have potent biological effects, cells not restated; for Tyrosine-phosphorylation of IRS-2: Fao hepatoma cells
IR β-subunit = test: Insulin-stimulated tyrosine phosphorylation of IR in 3T3-L1 adipocytes made 'insulin resistant'; assay type: cell-based; details: for IR and IRS-1 protein levels: TNF-α and aspirin-treated cells
Procedure: (§1) Culture cells were used as follows to investigate the mechanisms relating to salicylate treatment to the in vivo reversal of insulin resistance. TNF-α treatment of 3T3-L1 adipocytes induced ‘insulin resistance’, as judged by significant decreases in insulin-stimulated tyrosine phosphorylation of IR β-subunit (42±11%) and IRS-1 (37±9%). TNF-α mediated ‘insulin resistance’ was reversed by pretreatment with high-dose (5 mM) aspirin. IR and IRS-1 phosphorylation levels were restored to 126±24% and 136±35%, respectively, compared to untreated controls; IR and IRS-1 protein levels were unchanged in TNF-α and aspirin-treated cells. TNF-α activates a cascade of adapters and kinases, including TRADD, RIP, TRAF2, and TAB1, which act upstream of JNK, p38 MAPK, and the IKK complex. Okadaic acid and calyculin A, two phosphatase inhibitors, also activate IKKβ (DiDonato et al. (1997) Nature 388:548; Harhaj & Sun (1997) J Biol Chem 272:5409), but without activating upstream elements in the TNF-α signaling cascade. Okadaic acid and calyculin A also induce ‘insulin resistance’ in isolated tissues and cultured cells (Robinson et al (1993) Am J Physiol 265:E36; Paz et al (1997) J. Biol Chem 272:29911). Therefore, it was determined whether aspirin would reverse ‘insulin resistance’ caused by these inhibitors. Marked reductions in insulin-stimulated IR (29±12%) and IRS-1 (16±2%) tyrosine-phosphorylation were prevented by incubating the cells with high-dose aspirin (109±15% and 93±25%, respectively).
(§2) Hyperglycemia- and hyperinsulinemia-induced insulin resistance in diabetic subjects can be mimicked in cell culture by incubation with high concentrations of glucose and insulin. Potential mechanisms include glucose-induced activation of PKC, which can activate IKK. […] Concurrent treatment with aspirin restored IR (107±23%) and IRS-1 (90±23%) tyrosine-phosphorylation to levels seen in cells incubated at 5.5 mM glucose. […] Protein levels were restored by concurrent treatment with aspirin. Serine phosphorylation of IκB leads to ubiquitination and proteosome-mediated degradation. IRS proteins may be degraded by a similar route and in both cases, downregulation was inhibited by aspirin.

IRS-1 [1] = test: Insulin-stimulated tyrosine phosphorylation of IRS-1 in 3T3-L1 adipocytes made 'insulin resistant'; assay type: cell-based
Procedure: as §1, §2

IR = test: Insulin-stimulated IR activation in untransfected 293 cells; assay type: cell-based; details: TNF-α treatment
From the text: (§3) However, TNF-α is a potential mediator of acquired insulin resistance (Lang et al. (1992) Endocrinology 130:43; Feinstein et al. (1993) J Biol Chem 268:26055; Hotamisligil et al. (1993) Science 259:87; Hotamisligil et al. (1994) J Clin Invest 94:1543). TNF-α activates the IKK complex. TNF-α treatment of untransfected 293 cells reduced insulin-stimulated IR activation to 29±2% of untreated controls. Expression of kinase deficient, dominant inhibitory IKKα(K44A) or IKKβ(K44A) reversed TNF-α-inhibited IR activation. In fact, dominant-inhibitory IKKβ caused a 60% increase in insulin-stimulated IR tyrosine-phosphorylation over controls, whether or not cells had been treated with TNF-α. […] There is in vivo support for this, as well.

AKT = AKT activation in 293 cells; assay type: cell-based; details: TNF-α treatment
From the text: as §3

Zucker fa/fa rats = test: Effects of high-dose salicylates in Zucker fa/fa rats (GTT, ITT, serum lipids, ALT); details: for Food intake, blood chemistry, or body weight: Zucker fa/fa rats
From the text: (§4) Ob/ob mice are leptin deficient.

Zucker fa/+ rats = test: Effects of high-dose aspirin in Zucker fa/+ rats (oral GTT); assay type: in vivo, rat; details: 120 mg/kg/day
From the text: as §4

ob/+ mice = test: Effects of high-dose aspirin in ob/+ mice (GTT); assay type: in vivo, mouse; details: aspirin treatment, 120 mg/kg/day; intraperitoneal GTT
From the text: as §4

Insulin receptor (IR) = test: Insulin receptor tyrosine autophosphorylation in tissues from treated Zucker rats; assay type: in vivo, rat; details: liver and muscle of treated Zucker rats vs untreated
Procedure: (§5) Tissues were isolated from treated animals and insulin signaling proteins were analyzed. […] A cascade consisting of insulin receptor (IR), insulin-receptor substrate (IRS) proteins, PI 3-kinase and 3-phosphoinositide-dependent protein kinase-1 (PDK1), is required for maintenance of metabolic homeostasis.

AKT kinase = test: Insulin-stimulated AKT phosphorylation in tissues from treated Zucker rats; assay type: in vivo, rat; details: liver and muscle of treated Zucker rats vs untreated
Procedure: as §5

IRS-1 [2] = test: Electrophoretic mobility of IRS-1 from livers of treated animals; assay type: in vivo; details: animal livers; suggests decrease in Ser/Thr phosphorylation
From the text: In cultured cells, IRS proteins are especially prone to phosphorylation on serine and threonine residues, which opposes the effect of tyrosine phosphorylation by inhibiting signaling.

IR, IRS-2 and AKT = test: Insulin-stimulated activation of IR, IRS-2 and AKT in HEK293 cells expressing IKKβ, IKKα or NIK; assay type: cell-based; details: treatment with aspirin
From the text: To directly test the potential role of IKK, The IKKα and IKKβ catalytic subunits and NIK, an upstream activator, were expressed in HEK293 cells. Insulin stimulated the activation of IR, IRS-2 and AKT in these cells. Activation was attenuated by expression of IKKβ, IKKα or NIK. Attenuated activation was reversed by treatment with aspirin.

Sprague-Dawley rats = test: Insulin sensitivity in Sprague-Dawley rats on aspirin treatment; assay type: in vivo, rat; details: rats not insulin resistant, obese, or diabetic
ob/ob mice = details: 120 mg/kg/day; for Food intake, blood chemistry, or body weight: ob/ob mice
Procedure: FIGS. 1A-H: In vivo effects of aspirin in Zucker fatty rats and ob/ob mice. (panels A-F) Twelve-week-old male Zucker rats (Harlan) and (panels G,H) eight-week-old ob/ob and ob/+ mice (Jackson Labs) were given free access to food and water. […] For glucose tolerance tests (GTT), glucose (2.0 g/kg) was administered by oral gavage (rats) or intraperitoneal injection (mice) after an overnight fast. (panels A,C) Blood glucose and (panels B,D) serum insulin levels were determined during oral glucose tolerance tests in (panels A,B) six Zucker fa/fa rats and (panels C,D) six fa/+ rats. For insulin tolerance tests (ITT) in (panel E) six Zucker fa/fa rats, insulin (2.0 U/kg) was injected intraperitoneally after an overnight fast. (panel F) Cholesterol (Chol), triglyceride (TG), long chain free fatty acid (FFA), and liver alanine aminotransferase (ALT) levels were measured in sera from fasting Zucker fa/fa rats. Glucose tolerance tests were conducted with (panel G) ten ob/ob mice and (panel H) ten ob/+ mice. Data are mean±SEM values; some SEM values are within the area of the symbols.
A determination of the effects of high-dose salicylates on obese rodents with severe insulin resistance was performed as follows. Twelve-week-old male Zucker fa/fa rats and eight-week-old male ob/ob mice were treated for 3-4 weeks with 120 mg/kg/day of aspirin or salicylate, administered by continuous subcutaneous infusion; this dose is roughly equivalent to 5-10 g/day in humans.

IKKβ [3] = target: T1, IKKβ (Homo sapiens, UniProt O14920); details: Yin et al (1998); cited from earlier work
T1 sequence (O14920 1-756): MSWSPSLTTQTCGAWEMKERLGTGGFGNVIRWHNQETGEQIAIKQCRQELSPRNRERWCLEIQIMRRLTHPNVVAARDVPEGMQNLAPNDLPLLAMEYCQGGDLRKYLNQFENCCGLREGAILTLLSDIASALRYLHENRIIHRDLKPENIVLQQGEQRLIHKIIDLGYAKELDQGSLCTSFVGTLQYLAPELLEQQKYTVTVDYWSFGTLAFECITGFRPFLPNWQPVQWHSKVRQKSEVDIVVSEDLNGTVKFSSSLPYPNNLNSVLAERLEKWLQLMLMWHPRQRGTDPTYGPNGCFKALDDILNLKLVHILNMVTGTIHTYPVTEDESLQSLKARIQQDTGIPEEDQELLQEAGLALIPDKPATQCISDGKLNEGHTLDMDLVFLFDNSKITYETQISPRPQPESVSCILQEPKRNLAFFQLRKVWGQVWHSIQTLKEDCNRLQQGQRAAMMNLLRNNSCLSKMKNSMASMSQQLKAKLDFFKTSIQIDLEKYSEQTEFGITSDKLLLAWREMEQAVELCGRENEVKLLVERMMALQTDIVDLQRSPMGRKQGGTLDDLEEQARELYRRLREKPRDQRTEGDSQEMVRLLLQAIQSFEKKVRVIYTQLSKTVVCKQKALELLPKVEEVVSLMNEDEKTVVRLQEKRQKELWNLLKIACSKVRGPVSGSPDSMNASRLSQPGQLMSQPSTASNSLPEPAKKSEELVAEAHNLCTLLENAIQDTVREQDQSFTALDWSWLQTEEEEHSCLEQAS

cyclooxygenases = details: Furst (1994); cited from earlier work
[4] = 120 mg/kg/day continuous subcutaneous infusion
From the text: as §4

IKKβ [5] = details: without activating upstream elements in the TNF-α signaling cascade; cited from earlier work
[6] = test system: isolated tissues and cultured cells; details: cited from earlier work
[7] = 3T3-L1 adipocytes, TNF-α treatment alone
[8] = 3T3-L1 adipocytes overnight in 25 mM glucose and 10 nM insulin, concurrent aspirin, relative to cells at 5.5 mM glucose
[9] = 3T3-L1 adipocytes, TNF-α, pretreatment with 5 mM aspirin
[10] = phosphatase inhibitor-induced 'insulin resistance', cells incubated with high-dose aspirin

Compound: CS(=O)(=O)Nc1ccc([N+](=O)[O-])cc1OC1CCCCC1 [NS-398]
- Reversal of TNF-α induced 'insulin resistance' (IRS-2): no effect

Compound: COc1ccc2cc([C@H](C)C(=O)O)ccc2c1 [naproxen]
- Reversal of TNF-α induced 'insulin resistance' (IRS-2): Neither ibuprofen nor naproxen, two NSAID inhibitors of COX1 and COX2, reversed

Compound: TNF-α
- IR and IRS-1 protein levels (IR β-subunit; 3T3-L1 adipocytes): unchanged
- Insulin-stimulated tyrosine phosphorylation of IR β-subunit (IR β-subunit; [7]): 42±11%
- Insulin-stimulated tyrosine phosphorylation of IRS-1 (IRS-1 [1]; [7]): 37±9%
- Tyrosine-phosphorylation of IRS-2 (IRS-2; TNF-α treatment alone): 39±9%
- Insulin-stimulated IR activation, of untreated controls (IR): 29±2%
- AKT activation (AKT): 18±15%

Compound: CC(=O)Oc1ccccc1C(=O)O [aspirin]
- Insulin levels during glucose tolerance test (Zucker fa/fa rats; 120 mg/kg/day continuous subcutaneous infusion, 3-4 weeks, oral GTT): Concomitant reductions
- Fasting blood glucose values and glucose tolerance (Zucker fa/fa rats; 120 mg/kg/day continuous subcutaneous infusion, 3-4 weeks, oral GTT, compared to untreated controls): improved
- Food intake, blood chemistry, or body weight (Zucker fa/fa rats; 120 mg/kg/day): Neither aspirin nor salicylate affected
- Free fatty acid (FFA) levels (Zucker fa/fa rats; after the treatment period, aspirin 120 mg/kg/day): 1.1 ± 0.2 mM
- Fasting triglyceride levels (Zucker fa/fa rats; after three weeks of aspirin treatment, 120 mg/kg/day): 90 ± 58 mg/dL
- Cholesterol levels (Zucker fa/fa rats; fasting serum, aspirin 120 mg/kg/day): unaffected
- Blood glucose in insulin tolerance test (Zucker fa/fa rats; intraperitoneal insulin 2.0 U/kg after overnight fast, aspirin-treated animals): dramatic decreases
- Time to drop in FFA levels after aspirin initiation (Zucker fa/fa rats; preceding reductions in triglyceride and glucose levels): ≤ 1 week
- Serum levels of liver enzyme alanine aminotransferase (ALT) (hepatotoxicity) (Zucker fa/fa rats; throughout the studies): normal, low
- Insulin levels during glucose tolerance test (Zucker fa/+ rats; aspirin-treated group): Significantly lower
- Glucose levels during glucose tolerance test (Zucker fa/+ rats; following aspirin treatment): marginally reduced
- Glucose intolerance (ob/+ mice): normalized
- Insulin receptor (IR) tyrosine autophosphorylation (Insulin receptor (IR)): Significantly increased stimulation
- Insulin-stimulated AKT phosphorylation (AKT kinase): increased
- Electrophoretic mobility of IRS-1 (IRS-1 [2]): increased
- Insulin-stimulated IR tyrosine-phosphorylation (IR β-subunit; [8]): 107±23%
- IR and IRS-1 protein levels (IR β-subunit; 3T3-L1 adipocytes): unchanged
- IR phosphorylation level compared to untreated controls (IR β-subunit; [9]): 126±24%
- Protein levels of insulin signaling proteins downregulated by high glucose and insulin (IR β-subunit; 3T3-L1 adipocytes, concurrent treatment with aspirin): restored
- Insulin-stimulated IR tyrosine-phosphorylation (IR β-subunit; [10]): 109±15%
- Insulin-stimulated IRS-1 tyrosine-phosphorylation (IRS-1 [1]; [8]): 90±23%
- IRS-1 phosphorylation level compared to untreated controls (IRS-1 [1]; [9]): 136±35%
- Insulin-stimulated IRS-1 tyrosine-phosphorylation (IRS-1 [1]; [10]): 93±25%
- Reduced electrophoretic mobility of IRS-1 due to calyculin A-induced phosphorylation (IRS-1 [1]; with aspirin): reversed
- Tyrosine-phosphorylation of IRS-2 (IRS-2; TNF-α plus drug): 115±31%
- Activation of IR, IRS-2 and AKT attenuated by expression of IKKβ, IKKα or NIK (IR, IRS-2 and AKT): reversed
- Insulin sensitivity (Sprague-Dawley rats): increased insulin sensitivity
- Fasting blood glucose values and glucose tolerance (ob/ob mice; 3-4 weeks, intraperitoneal GTT, compared to untreated controls, every time point): significantly improved
- Food intake, blood chemistry, or body weight (ob/ob mice): Neither aspirin nor salicylate affected
- Inhibition of IKKβ, relative potency (IKKβ [3]): equipotent inhibitors
- Potency towards the cyclooxygenases, aspirin relative to sodium salicylate (cyclooxygenases): ~100 fold

Compound: O=C([O-])c1ccccc1O.[Na+] [salicylate, sodium salicylate]
- Food intake, blood chemistry, or body weight (Zucker fa/fa rats; 120 mg/kg/day): Neither aspirin nor salicylate affected
- Serum salicylate levels, mean [4]: 0.81 ± 0.25 mM
- Serum salicylate levels, range [4]: 0.3 to 1.3 mM
- Insulin receptor (IR) tyrosine autophosphorylation (Insulin receptor (IR)): Significantly increased stimulation
- Insulin-stimulated AKT phosphorylation (AKT kinase): increased
- Electrophoretic mobility of IRS-1 (IRS-1 [2]): increased
- Tyrosine-phosphorylation of IRS-2 (IRS-2; TNF-α plus drug): 89±8%
- Food intake, blood chemistry, or body weight (ob/ob mice): Neither aspirin nor salicylate affected
- Inhibition of IKKβ, relative potency (IKKβ [3]): equipotent inhibitors

Compound: COC[C@@H]([C@H](O)[C@H](O)C(=O)NCC[C@H](C)c1nc(/C=C/C[C@@H]2O[C@]3(C[C@@H](O)[C@@H]2C)O[C@H]([C@H](C[C@H](O)[C@H](C)[C@H](O)[C@H](C)/C=C(C)/C(C)=C/C=C/C(C)=C\C#N)OC)[C@H](OP(=O)(O)O)C3(C)C)co1)N(C)C [calyculin A]
- Effect on IKKβ (IKKβ [5]): activate
- 'Insulin resistance' in isolated tissues and cultured cells [6]: induce

Compound: CC(C)Cc1ccc(C(C)C(=O)O)cc1 (centres unmarked) [ibuprofen]
- Reversal of TNF-α induced 'insulin resistance' (IRS-2): Neither ibuprofen nor naproxen, two NSAID inhibitors of COX1 and COX2, reversed

Compound: C=C1[C@@H](O)[C@@H]2O[C@]3(CC[C@H](/C=C/[C@@H](C)[C@@H]4CC(C)=C[C@@]5(O[C@H](C[C@@](C)(O)C(=O)O)CC[C@H]5O)O4)O3)CC[C@H]2O[C@@H]1[C@@H](O)C[C@H](C)[C@H]1O[C@@]2(CCCCO2)CC[C@H]1C [Okadaic acid]
- Effect on IKKβ (IKKβ [5]): activate
- 'Insulin resistance' in isolated tissues and cultured cells [6]: induce
